Measured values published in patent US20230413879A1, “FOOD COMPRISING ISOSTEVIOL AND USES THEREOF” (ISOFIRMS APS, priority 2020, published 2023).
“Also recorded” adds a separate entry of the source.

Tests used:
pigs [1] = experiment: Overall uptake of feed judged by generated manure and stool analysis (Example 3); assay type: in vivo, pig (Danish Landrace)
Experimental: See example 1. Overall uptake of feed was determined by the amount of generated manure by the different groups.

piglets [2] = experiment: Larger pig trial: feed conversion ratio (FCR) (Example 8); assay type: in vivo, pig (DanBred x Duroc); conditions: for Feed conversion ratio (FCR) versus negative control: 42 days trial
Source text: In this regard, the food/feed conversion ratio (FCR) is defined as the ratio between the amount of food eaten by an animal to the output produced by the animal (e.g. amount of meat produced by a pig, amount of milk produced by a cow etc.). Food that is efficiently taken up and converted by the body of the animal to said output obtains a FCR-value lower than a food having a low uptake in the animal. Thus, lower FCR-values are preferred for most applications. In some sectors, feed efficiency, which is the output divided by the input (i.e. the inverse of FCR), is used.
(§1) Trial with 360 barrows and female piglets (DanBred×Duroc; initial BW of about 6.8 kg).
(§2) Age when trial started approx. 7 days and trial ended after 42 days. They weighed approx. 7 kg initially and have been feed as per normal conventional diet for piglets until delivery.
(§3) Basal diets as per standard industry feed: • Prestarter diet for post-weaning piglets: 7.0 to 9.0 kg BW • Starter diet for piglets: 9.0 to 15.0 kg BW • Grower diet for piglets: 15.0 to 30.0-35.0 kg BW.
(§4) Isosteviol >97% was produced in-house. Isosteviol may be produced by acid-catalysed extraction of Stevia rebaudiana L. Preferably at a pH below 5.5.
(§5) • Negative control: No isosteviol • Treatment 1 (IS10): 1% isosteviol mg/kg Bodyweight (BW) • Treatment 2 (IS13): 1.3% isosteviol mg/kg Bodyweight (BW)
(§6) The pigs were fed standard diets supplemented with Isosteviol as outlined above.
(§7) IsoSteviol Premix 0.71% was produced in Vilofoss Premix factory, and included at 0.29/0.37, 0.25/0.33% (by weight) in complete feed to reach 1/1.3 mg IsoSteviol/kg BW (bodyweight).
(§8) The piglets were randomly distributed in 10 pigsties per treatment when trial started. Food and water were provided ad libitum. The farmer was not aware of which groups received which additional feed, since all feeds were masked to look the same and the control group received a bag similar to the other groups.

pigs [3] = experiment: Stool firmness / diarrhea in pigs (Example 4); assay type: in vivo, pig (Danish Landrace); conditions: groups receiving isosteviol (IPG and IG) compared to control groups (CG and CPG)
pigs [4] = experiment: Meat (muscle) percentage at slaughter, ultrasound Autoform (Example 5); assay type: in vivo, pig (Danish Landrace); conditions: FIG. 5-6
Experimental: See also previous examples.
Meat percentage is measured when the pig is dead. The body is prepared and send to an automatic equipment that measures fat/meat thicknesses based on ultrasound measurements called an Autoform. The equipment is certified by third party and the meat percentages in this study was performed by Tican A/S at the slaughterhouse in Brdrup.
Increased meat (muscle) percentage can also be considered to correspond to an increased muscle/fat ratio.

pigs [5] = experiment: Turnover rate: days to grow pigs from approx. 30 kg to around 118 kg (Example 6); assay type: in vivo, pig (Danish Landrace)
Source text: See also previous examples. Turnover rates of the pigs was defined by the time (days) it takes to grow the pigs from approx. 30 kg to around 118 kg. Thus, turnover time is the time it takes to grow the pigs from approx. 30kg to their optimum slaughter weight. The faster the turnover rate is, the faster the pigs goes through the process and consequently this is the determination factor on how many pigs the farmer can deliver to the slaughterhouse within a year.

pigs [6] = experiment: Pig feeding trial: growth rate / weight gain (Example 2); assay type: in vivo, pig (Danish Landrace); conditions: for Average weight (kg) start: baseline; for Net growth vs. CG group / Net growth vs. CPG group: index; for Net growth vs. CG group: CG = 100; for Net growth vs. CPG group: CPG = 100; for Average weight (kg) Increase: start to week 8
Source text: Isosteviol in 97% purity was produced in-house. Isosteviol may be produced by acid-catalysed extraction of Stevia rebaudiana L. Preferably at a pH below 5.5.
The pigs were of the type Danish Landrace Age approx. 90 days, gender equally distributed. They weighted approximately 30 kg when delivered and had been fed with a normal conventional diet for piglets until delivery.
• Standard feed is home-blended by the farmer with the ratio: Wheat 55 w %, Barley 35 w %, Rye 10 w %. • Nutritional profile/100 g: • Nutritional content: 1313 KJ • Fat: 1.8 g • Carbohydrate: 68.9 g • Of which sugar: 1.4 g • Fibres: 15.8 g • Protein: 12.8 g • Supplementary feed: The Supplementary feed was distributed as a “Semi Soja 1920” composition (from DLG), which is a supplementary feed high in protein, carbohydrate, and free amino acids.
as §8, with “pigs” for “piglets”, “the five” for “10”, “pigsties” for “pigsties per treatment”, “libitum (see Table 2).” for “libitum.”, “CG” for “control”
Every other week the pigs were weighed, and their growth were noted. The pigs were attended too equally.
Timeframe: Trial started after delivery of the 30 kg pigs and was planned to end when the pigs weighed around 115-118 kg, the weight at trial-end was however around 120 kg (11 weeks). Total time for production is 72 days.
The food intake by each pig during the trial is described in Table 3.

piglets [7] = experiment: Larger pig trial: body weight / weight gain (Example 8); assay type: in vivo, pig (DanBred x Duroc); conditions: for weight gain versus negative control: week 3-6 and week 1-6 / 42 days trial; for Body weight [kg] Mean SD 0 / Body weight [kg] Median SD 0: baseline
Source text: as §1, §2, §3, §4, §5, §6, §7, §8

broiler chickens = conditions: cited from earlier work
[8] = Treatment 1 (IS10), 1 mg IsoSteviol/kg BW in feed
[9] = Treatment 2 (IS13), 1.3 mg IsoSteviol/kg BW in feed
[10] = IG group (standard feed incl. standard dose of supplementary feed + isosteviol 1 mg/kg/day), 8 pigs
[11] = IPG group (standard feed + additional 10 w % supplementary feed + isosteviol 1 mg/kg/day), 9 pigs
[12] = IG group (isosteviol only, 1 mg/kg/day)
[13] = IPG group (additional 10 w % supplementary feed + isosteviol 1 mg/kg/day)

Structure (SMILES): C[C@@]12CC[C@@H]3[C@@](CC[C@H]4[C@@]3(C)CCC[C@@]4(C)C(=O)O)(CC1=O)C2 [isosteviol]
- appearance of pigs noted by the farmer (muscle to fat ratio) (pigs [1]; IPG group compared to the control group): leaner and more firmly meaty
- overall uptake of the feed (amount of generated manure) (pigs [1]; isosteviol added to feed (IPG) vs CPG group, FIG. 4): higher overall uptake of the feed
- decrease of the amount of nutritional ingredients in stool (pigs [1]; preliminary stool analysis, considering the quantity of manure discharged, data not shown): approx. 6%
- Feed conversion ratio (FCR) versus negative control (piglets [2]; Treatment 1 (+Isosteviol), FIG. 12): significant decreased feed conversion ratio; also recorded: More than relevant superiority
- Feed Conversion Ratio (FCR) Mean SD 42 (piglets [2]; [8]): 1.399
- Feed Conversion Ratio (FCR) Median SD 42 (piglets [2]; [8]): 1.380
- Feed conversion ratio (FCR) versus negative control (piglets [2]; Treatment 2 (+Isosteviol), FIG. 13): significant decreased feed conversion ratio; also recorded: More than relevant superiority
- Feed Conversion Ratio (FCR) Mean SD 42 (piglets [2]; [9]): 1.393
- Feed Conversion Ratio (FCR) Median SD 42 (piglets [2]; [9]): 1.360
- stool firmness (pigs [3]): more firm; also recorded: much firmer stool
- meat (muscle) percentage / muscle/fat ratio (pigs [4]; IG group (isosteviol alone) vs control): very significant increase of the muscle weight; also recorded: increase
- meat (muscle) percentage / muscle/fat ratio (pigs [4]; IPG group (isosteviol + supplementary feed) vs control): increased their muscle/fat ratio to a significant degree; also recorded: increase
- increase of yearly turnover in production vs CG group (pigs [5]; IG group, data not shown): 0.1%
- increase of yearly turnover rate in production vs CG group (pigs [5]; IPG group, FIG. 8): around 4.8%
- growth exceeding that of control group (CG) (pigs [6]; FIG. 1, Isosteviol and protein group (IPG) vs CG at index 100): 4.0%
- growth exceeding that of control+protein group (CPG) (pigs [6]; FIG. 2, Isosteviol and protein group (IPG) vs CPG at index 100): 5.8%
- growth exceeding that of control group (CG) (pigs [6]; FIG. 3, Isosteviol group (IG) vs CG at index 100): 0.8%
- Average weight (kg) week 8 (pigs [6]; [10]): 99.50 kg
- weight gain compared to the Control (CG) group (pigs [6]; IG group, FIG. 3, in words): clear increased weight gain
- Average weight (kg) week 8 (pigs [6]; [11]): 99.78 kg
- weight gain compared to the control group (CG) (pigs [6]; IPG group, FIG. 1, in words): clear increased weight gain
- weight gain compared to the CPG group (pigs [6]; IPG group, FIG. 2, in words): clear increased weight gain
- Average weight (kg) start (pigs [6]; [10]): 35.00 kg
- Average weight (kg) start (pigs [6]; [11]): 33.11 kg
- Net growth vs. CG group (pigs [6]; [12]): 100.8
- Net growth vs. CG group (pigs [6]; [13]): 104.0
- Net growth vs. CPG group (pigs [6]; [12]): 102.71
- Net growth vs. CPG group (pigs [6]; [13]): 105.80
- Average weight (kg) Increase (pigs [6]; [12]): 64.50 kg
- Average weight (kg) Increase (pigs [6]; [13]): 66.67 kg
- weight gain versus negative control (piglets [7]; Treatment 1 (+Isosteviol), FIG. 10, p<0.0023): significant higher weight gain; also recorded: Observed relevant superiority, significant proven
- Body weight [kg] Mean SD 10 (piglets [7]; [8]): 11.568 kg
- Body weight [kg] Mean SD 21 (piglets [7]; [8]): 15.783 kg
- Body weight [kg] Mean SD 42 (piglets [7]; [8]): 32.660 kg
- Body weight [kg] Median SD 10 (piglets [7]; [8]): 11.550 kg
- Body weight [kg] Median SD 21 (piglets [7]; [8]): 15.900 kg
- Body weight [kg] Median SD 42 (piglets [7]; [8]): 33.200 kg
- weight gain versus negative control (piglets [7]; Treatment 2 (+Isosteviol), FIG. 11, p<0.0158): significant higher weight gain; also recorded: Observed relevant superiority, significant proven
- Body weight [kg] Mean SD 10 (piglets [7]; [9]): 11.574 kg
- Body weight [kg] Mean SD 21 (piglets [7]; [9]): 15.558 kg
- Body weight [kg] Mean SD 42 (piglets [7]; [9]): 32.293 kg
- Body weight [kg] Median SD 10 (piglets [7]; [9]): 11.500 kg
- Body weight [kg] Median SD 21 (piglets [7]; [9]): 15.600 kg
- Body weight [kg] Median SD 42 (piglets [7]; [9]): 32.000 kg
- Body weight [kg] Mean SD 0 (piglets [7]; [8]): 7.868 kg
- Body weight [kg] Median SD 0 (piglets [7]; [8]): 7.850 kg
- Body weight [kg] Mean SD 0 (piglets [7]; [9]): 7.865 kg
- Body weight [kg] Median SD 0 (piglets [7]; [9]): 7.875 kg

Structure (SMILES): C=C1C[C@@]23CC[C@H]4[C@@](C)(CCC[C@@]4(C)C(=O)O[C@@H]4O[C@H](CO)[C@@H](O)[C@H](O)[C@H]4O)[C@@H]2CC[C@]1(O[C@@H]1O[C@H](CO)[C@@H](O)[C@H](O)[C@H]1O[C@@H]1O[C@H](CO)[C@@H](O)[C@H](O)[C@H]1O)C3 [stevioside]
- effect on the broilers (broiler chickens; fed orally to broiler chickens): no positive effect
- abdominal fat content of the chicken (broiler chickens; in a diet for broilers): significantly increased
